From patent US20100120662A1, “Glucose uptake modulator and method for treating diabetes or diabetic complications” (POSTECH Foundation, priority 2005, published 2010)

How the values were obtained:
3T3-L1 adipocytes [1] = assay: [14C] 2-deoxy-D-glucose uptake in 3T3-L1 adipocytes; type: cell-based; conditions: for stimulation of glucose uptake: equimolar 20 μM, 10 min
Procedure: Cell culture: 3T3-L1 fibroblasts were grown to confluence in DMEM containing a high glucose concentration, 10% fetal bovine serum, 50 U of penicillin per ml, and 50 ug of streptomycin per ml and maintained in a 5% CO2 humidified atmosphere at 37° C. 3T3-L1 was induced to differentiate into adipocytes, as described previously (van den Berghe, N., et al., Mol Cell Biol 14, pp. 2372-2377, 1994).
Glucose uptake measurement. For measuring glucose uptake in 3T3-L1 adipocytes, cells were grown in serum-free DMEM for 16 h and then incubated in the absence or presence of insulin or lysophospholipids for the indicated times at 37° C. Uptake was measured by adding 1 μCi of [^14C] 2-deoxy-D-glucose and 3 mM 2-deoxy-D-glucose. After 10 min, the assay was terminated by two quick washes with ice-cold PBS. Cells were lysed in 0:5 ml of lysis buffer containing 0.5 N NaOH and 0.1% SDS. The cell lysates were used for liquid scintillation counting and nonspecific uptake was assayed in the presence of 10 μM cytochalasin B (van den Berghe, N., et al., Mol Cell Biol 14, pp. 2372-2377, 1994).
FIG. 2A to 2D show the effects of LPC on the glucose uptake in 3T3-L1 adipocytes. […] After these treatments, [^14C] 2-deoxy-D-glucose uptake was measured for 10 min as described in Material Methods. […] FIGS. 2C and 2D show relative [^14C] 2-deoxy-D-glucose uptake in 3T3-L1 adipocytes incubated in the absence (control) or presence of equimolar concentrations (20 μM) of myristoyl lysophosphatidylcholine (14:0 LPC), palmytoyl lysophosphatidylcholine (16:0 LPC), stearoyl lysophosphatidylcholine (18:0 LPC), palmytoyl lysophsophatidylethanolamine (16:0 LPE), palmytoyl lyso-phosphatidylinositol (16:0 LPI), palmytoyl lysophosphatidylglycerol (16:0 LPG) for 10 min. Values are mean±SE of three independent experiments performed in triplicate. *P<0.05 vs. basal.

C2C12 muscle cells = assay: Glucose uptake in C2C12 muscle cells (LPC); type: cell-based; conditions: data not shown
GLUT4 = GLUT4 translocation to the plasma membrane in 3T3-L1 adipocytes; type: cell-based; conditions: 20 μM, 10 min, plasma membrane fraction
Procedure: Membrane fractionation of adipocytes. For obtaining total membranes (TM) from 3T3-L1 adipocytes, cells were collected into 10 ml of ice-cold HES buffer (250 mM sucrose, 1 mM EDTA, 1 mM phenylmethylsulfonyl fluoride [PMSF], 1 μM pepstatin, 1 μM aprotinin, 1 μM leupeptin, and 20 mM HEPES, pH 7.4) and subsequently homogenized with 30 strokes in a glass Dounce homogenizer at 4° C. After centrifugation at 1,000 g for 5 min at 4° C. to remove unbroken cells, the supernatant was then centrifugated at 212,000 g for 90 min at 4° C. to yield a pellet of total cellular membranes. To obtain the plasma membrane (PM) subcellular fraction from 3T3-L1 adipocytes, differential ultracentrifugation was used as described previously (Perrini, S., et al., Diabetes 53, pp. 41-52, 2004).
Immunoblotting. For preparing total cell lysates, 3T3-L1 adipocytes were washed with Ca^2+/Mg^2+-free PBS and then lysed in the lysis buffer (50 mM HEPES, pH 7.2, 150 mM NaCl, 50 mM NaF, 1 mM Na3VO4, 10% glycerol, 1% Triton X-100). The lysates were centrifuged at 15,000 rpm for 15 min at 4° C. […]
FIGS. 3A and 3B show LPC stimulates GLUT4 translocation in 3T3-L1 adipocytes. […] In each experiment, the relative increase or decrease in the integrated density value (IDV) of GLUT4 after stimulation with compounds is calculated. B) Quantitation of relative increases is depicted. […]

IRS1 and AKT = IRS1 and AKT phosphorylation in 3T3-L1 adipocytes (immunoblot); type: cell-based; conditions: LPC treatment of 3T3-L1 adipocytes
Procedure: Immunoblotting. For preparing total cell lysates, 3T3-L1 adipocytes were washed with Ca^2+/Mg^2+-free PBS and then lysed in the lysis buffer (50 mM HEPES, pH 7.2, 150 mM NaCl, 50 mM NaF, 1 mM Na3VO4, 10% glycerol, 1% Triton X-100). The lysates were centrifuged at 15,000 rpm for 15 min at 4° C. The proteins were denatured by boiling in laemmli sample buffer for 5 min at 95° C., separated by SDS-PAGE. SDS-gel was transferred to nitrocellulose membrane using Hoefer wet transfer system. Membranes were blocked in TTBS (20 mM Tris-HCl, pH 7.6, 150 mM NaCl, 0.05% Tween 20) containing 5% skimmed milk powder for 30 min and then incubated with antibodies for 3 hours. After washing membranes several times with TTBS, the blots were incubated with HRP (Horseradish peroxidase)-conjugated goat anti-rabbit for 1 hour. The blots were washed with TTBS and developed by ECL.

3T3-L1 adipocytes [2] = assay: Cytotoxicity of LPC concentration used on 3T3-L1 adipocytes; type: cell-based; conditions: 20 μM LPC
male ICR mice [3] = assay: Acute blood glucose lowering in normal ICR mice after intravenous lysophospholipid; type: in vivo, mouse
Procedure: (§1) Animals. Male ICR mice were purchased from hyochang science (ROK). C57BLKSJ-db/db mice were purchased from SLC (Japan). After intravenous injection of LPC, blood glucose was measured regularly with a portable glucose meter (Gluco-Dr, ROK) after tail snipping. For measurement of serum insulin, blood samples of mice were determined with the insulin-RIA Kit (LINCO, Missouri). Insulin deficient mice were induced in male ICR mice by two consecutive daily intraperitoneal injection of STZ (200 mg/kg) dissolved in sodium citrate (pH 5.5). On the third day after the last STZ injection, acute glucose lowering effect was analyzed after intravenous injection of vehicle, LPC or insulin as described above.
(§2) Eight-week-old male mice were intravenously injected with PBS, insulin, LPC, or LPE. Blood glucose was monitored after dosing (0 to 120 min). […] All animals had free access to water. Animal care was in accordance with institutional guidelines. All data are shown as means±SE (n=5-6).*P<0.05.

male ICR mice [4] = assay: Serum insulin level in mice after single intravenous injection; type: in vivo, mouse
Procedure: as §1, §2

[5] = system: STZ-treated insulin deficient ICR male mice; assay: Acute glucose lowering in streptozotocin (STZ)-treated insulin deficient ICR mice; type: in vivo, mouse; conditions: 30 μmol/kg i.v. LPC
Procedure: as §1, §2

C57BLKSJ-db/db mice = assay: Acute glucose lowering in insulin-resistant obese db/db mice; type: in vivo, mouse; conditions: injection of LPC
Procedure: as §1, §2

[6] = 3T3-L1 adipocytes, 10 min incubation

CCCCCCCCCCCCCCCC(=O)OC[C@@H](O)COP(=O)([O-])OCC[N+](C)(C)C [LPC, palmytoyl lysophosphatidylcholine]
incubation time at which glucose uptake was maximally increased (3T3-L1 adipocytes [1]; 20 μM, 0 to 20 min): 10 min | concentration of initial statistically significant effect on glucose uptake (3T3-L1 adipocytes [1]; [6]): 1 µM | concentration of maximal effect on glucose uptake (3T3-L1 adipocytes [1]; [6]): 20 µM | time and dose dependence of glucose uptake (3T3-L1 adipocytes [1]; 3T3-L1 adipocytes, various concentrations): time- and dose-dependent increase in glucose uptake | stimulation of glucose uptake (3T3-L1 adipocytes [1]): specifically stimulated glucose uptake | stimulation of glucose uptake (3T3-L1 adipocytes [1]; listed as palmytoyl LPC): stimulated glucose uptake | rate of glucose uptake in C2C12 muscle cells (C2C12 muscle cells): increased the rate of glucose uptake in a dose dependent manner | PM content of GLUT4 proteins (GLUT4): 180 % of basal | phosphorylation of IRS1 and AKT (IRS1 and AKT): had no effects on phosphorylation of IRS1 and AKT | cytotoxicity (3T3-L1 adipocytes [2]): not cytotoxic | time to statistically significant fall in blood glucose (male ICR mice [3]; 15 or 30 μmol/kg i.v.): ≤ 30 min | blood glucose levels in ICR mice (male ICR mice [3]; 15 or 30 μmol/kg i.v., acute): statistically significant fall in blood glucose levels | blood glucose lowering, comparison of lysophospholipid species (male ICR mice [3]; doses equimolar to 30 μmol/kg i.v., ICR mice): significant effect on the blood glucose lowering | change in blood insulin levels (male ICR mice [4]): not due to changes in blood insulin levels | blood glucose concentrations in STZ-treated insulin deficient mice [5]: significantly reduced blood glucose concentrations | blood glucose in insulin-resistant obese db/db mice (C57BLKSJ-db/db mice): dropped to near normal levels
